Measurements taken from publication PMC8601599, “Computational redesign of a fluorogen activating protein with Rosetta” (PLoS Computational Biology, 2021).
Positions count from the first letter of the chain named.

Legend:
Assay in all cases: fluorescence titration
Type in all cases: binding
DiB-RM-split = biological target: T1, DiB-RM-split (Escherichia coli, UniProt P0A901, A36C/F53A/N76F/S89Y/E90V/S107A/L141N); conditions: apparent Kd, 1 μM chromophore, varied protein, excitation 490 nm
T1 construct: gene blc; two co-expressed self-assembling fragments of DiB-RM split between residues 109 and 110; E. coli XJb(DE3), TALON then size exclusion
T1 sequence (P0A901 20-109 A36C/F53A/N76F/S89Y/E90V/S107A): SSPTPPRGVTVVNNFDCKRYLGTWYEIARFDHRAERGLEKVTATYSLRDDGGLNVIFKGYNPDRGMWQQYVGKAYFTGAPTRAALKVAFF
T1 sequence (P0A901 110-177 L141N): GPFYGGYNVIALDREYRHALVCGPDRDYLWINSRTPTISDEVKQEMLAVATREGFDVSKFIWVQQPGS
Source text: fluorescence titration on DiB-RM-split

[1] = biological target: T2, DiB1; DiB-RM (lipocalin Blc mutants) (Escherichia coli, UniProt P0A901, A36C/F53A/N76F/E90V/S107A/L141N); conditions: DiB-RM-Y89S; apparent Kd; 1 μM chromophore, varied protein; excitation 490 nm
T2 construct: E. coli XJb(DE3) expression from pBAD, TALON then size exclusion; monomer in solution
T2 sequence (P0A901 20-177 A36C/F53A/N76F/E90V/S107A/L141N): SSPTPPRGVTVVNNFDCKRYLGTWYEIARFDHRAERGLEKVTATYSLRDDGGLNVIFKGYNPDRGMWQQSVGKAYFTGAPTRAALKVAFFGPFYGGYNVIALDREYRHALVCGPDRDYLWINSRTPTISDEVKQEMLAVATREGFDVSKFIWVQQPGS
Source text: (§1) fluorescence titration on DiB1; DiB-RM (lipocalin Blc mutants)

[2] = biological target: T3, DiB1; DiB-RM (lipocalin Blc mutants) (Escherichia coli, UniProt P0A901, A36C/F53A/N76F/S89Y/E90V/L141N); conditions: DiB-RM-A107S; apparent Kd; 1 μM chromophore, varied protein; excitation 490 nm
T3 construct: E. coli XJb(DE3) expression from pBAD, TALON then size exclusion; monomer in solution
T3 sequence (P0A901 20-177 A36C/F53A/N76F/S89Y/E90V/L141N): T2 sequence (P0A901 20-177 A36C/F53A/N76F/E90V/S107A/L141N) with S70Y, A88S
Source text: as §1

[3] = biological target: T4, DiB1; DiB-RM (lipocalin Blc mutants) (Escherichia coli, UniProt P0A901, A36C/F53A/N76F/S89Y/E90V/S107A/L141N); conditions: apparent Kd, 1 μM chromophore, varied protein, excitation 490 nm
T4 construct: E. coli XJb(DE3) expression from pBAD, TALON then size exclusion; monomer in solution
T4 sequence (P0A901 20-177 A36C/F53A/N76F/S89Y/E90V/S107A/L141N): T2 sequence (P0A901 20-177 A36C/F53A/N76F/E90V/S107A/L141N) with S70Y
Source text: as §1

[4] = biological target: T5, DiB1; DiB-RM (lipocalin Blc mutants) (Escherichia coli, UniProt P0A901, A36C/F53A/N76F/S89Y/S107A/L141N); conditions: DiB-RM-V90E; apparent Kd; 1 μM chromophore, varied protein; excitation 490 nm
T5 construct: E. coli XJb(DE3) expression from pBAD, TALON then size exclusion; monomer in solution
T5 sequence (P0A901 20-177 A36C/F53A/N76F/S89Y/S107A/L141N): T2 sequence (P0A901 20-177 A36C/F53A/N76F/E90V/S107A/L141N) with S70Y, V71E
Source text: as §1

[5] = biological target: T6, DiB1; DiB-RM (lipocalin Blc mutants) (Escherichia coli, UniProt P0A901, A36C/F53A/S89Y/E90V/S107A/L141N); conditions: DiB-RM-F76N; apparent Kd; 1 μM chromophore, varied protein; excitation 490 nm
T6 construct: E. coli XJb(DE3) expression from pBAD, TALON then size exclusion; monomer in solution
T6 sequence (P0A901 20-177 A36C/F53A/S89Y/E90V/S107A/L141N): T2 sequence (P0A901 20-177 A36C/F53A/N76F/E90V/S107A/L141N) with F57N, S70Y
Source text: as §1

[6] = biological target: T7, DiB1; DiB-RM (lipocalin Blc mutants) (Escherichia coli, UniProt P0A901, A36C/L141N); conditions: apparent Kd, 1 μM chromophore, varied protein, excitation 490 nm
T7 construct: E. coli XJb(DE3) expression from pBAD, TALON then size exclusion; monomer in solution
T7 sequence (P0A901 20-177 A36C/L141N): T2 sequence (P0A901 20-177 A36C/F53A/N76F/E90V/S107A/L141N) with A34F, F57N, V71E, A88S
Source text: as §1

[7] = biological target: T8, DiB1; DiB-RM (lipocalin Blc mutants) (Escherichia coli, UniProt P0A901, A36C/N76F/S89Y/E90V/S107A/L141N); conditions: DiB-RM-A53F; apparent Kd; 1 μM chromophore, varied protein; excitation 490 nm
T8 construct: E. coli XJb(DE3) expression from pBAD, TALON then size exclusion; monomer in solution
T8 sequence (P0A901 20-177 A36C/N76F/S89Y/E90V/S107A/L141N): T2 sequence (P0A901 20-177 A36C/F53A/N76F/E90V/S107A/L141N) with A34F, S70Y
Source text: as §1

`CCN(CC)c1ccc2c(c1)[B-](F)(F)[N+]1=C(C)N(C)C(=O)C1=C2` [M739] showed a Kd (DiB-RM-split) of 2800 ± 400 nM, a Kd [1] of 660 ± 80 nM and a Kd [2] of 290 ± 40 nM. For the same compound, the Kd [3] was 170 ± 40 nM, the Kd [4] was 380 ± 50 nM and the Kd [5] was 70 ± 10 nM. For the same compound, the Kd [6] was 40 ± 30 nM and the Kd [7] was 160 ± 40 nM.
